Here are results for five compounds from patent publication US20140212401A1, “USE OF SYNTHETIC AND BIOLOGICAL FUNGICIDES IN COMBINATION FOR CONTROLLING HARMFUL FUNGI” (Bayer CropScience LP, priority 2009, published 2014).

One assay has as its system Cercospora beticola. The experiment in a line: Example 8: inoculated sugar beets, spray treatments, visual % infection of plant.
Assay [1] deals with Pseudoperonospora cubensis. The experiment in a line: Example 4: inoculated cucurbits, spray treatments, visual % infection of leaves. It is filed as in vivo. As to conditions: 28 days after first treatment. From the text:
The results are compiled in Table 4 below. [table]

The test system of assay [2] is Uncinula necator. The experiment in a line: Example 13: inoculated grapes, spray treatments, visual % infection of raceme and leaves. It is filed as in vivo. From the text:
The results are compiled in Table 13 below.

The test system of another assay is Erysiphe necator. The experiment in a line: Example 29: inoculated grapes, spray treatments, visual % infection of clusters. As to conditions: Metrafenone (VIVANDO 0.27 L/ha) applications ABCD.
The subject of assay [3] is Sphaerotheca fuliginea. The experiment in a line: Example 9: inoculated melons, spray treatments, visual % infection of plant.
Method: (§1) Evaluation was carried out by visually determining the infected leaf areas in %.
Melons were cultivated and grown under standard conditions with adequate supply of water and nutrients. The test plants were inoculated with an aqueous spore suspension of Sphaerotheca fuliginea. […] For comparison, a part of the plants was sprayed with metrafenone alone (used as the commercial product VIVANDO®, BASF; dose rate per treatment: 0.2 L/ha; diluted with water to 500 L/ha). […] 27 and 34 days after the first treatment (1 or 8 days after last treatment), the extent of the development of the disease was determined visually in % infection of the plant.
The test system of assay [4] is Sphaerotheca fuliginea. The experiment in a line: Example 12: inoculated cucurbits, spray treatments, visual % infection of upperside of leaves. It is filed as in vivo. As to conditions: 38 days after first treatment, Metrafenone (VIVANDO 0.2 L/ha) applications ABC. From the text: The results are compiled in Table 12 below.
The subject of the next assay is Leveillula taurica. The experiment in a line: Example 10: inoculated peppers, spray treatments, visual % infection of leaves. As to conditions: Metrafenone (VIVANDO 0.2 L/ha) applications AB.
In assay [5] the test system is Uncinula necator. The experiment in a line: Example 2: inoculated vine grapes, spray treatments, visual % infection of racemes.
Method: Vine grapes were grown under standard conditions with adequate supply of water and nutrients. The test plants were inoculated with an aqueous spore suspension of Uncinula necator. […] For comparison, a part of the plants was sprayed with metrafenone alone (used as the commercial product VIVANDO®, BASF; dose rate per treatment: 0.02 Vol.-%; diluted with water to 800 L/ha). […] 85 and 91 days after the first treatment (15 or 21 days after last treatment), the extent of the development of the disease was determined visually in % infection of the racemes.
Assay [6] concerns Sphaerotheca fuliginea. The experiment in a line: Example 27: inoculated cucumbers, spray treatments, visual % infection of leaves. As to conditions: 38 days after first treatment; Metrafenone (VIVANDO 0.3 L/ha) applications ABC.
Method: as §1
Cucumbers were cultivated and grown under standard conditions with adequate supply of water and nutrients. The test plants were inoculated with an aqueous spore suspension of Sphaerotheca fuliginea. […] For comparison, a part of the plants was sprayed metrafenone alone (used as the commercial product VIVANDO®, BASF; dose rate per treatment: 0.3 L/ha; diluted with water to 500 L/ha). […] 38 days after the first treatment, the extent of the development of the disease was determined visually in % infection of the leaves.
Assay [7] has as its system Erysiphe necator (UNCINE). The experiment in a line: Example 15: field trial grapevine cv. Müller-Thurgau, natural infection, percent infected clusters.
Method: The trial was conducted under field conditions. Established grapevine plants (cv. Müller-Thurgau) were grown under standard conditions with adequate supply of water and nutrients. The application was repeated 3 to 6 times (see below) with 14 days intervals applying single products. No other products or compounds were applied for pathogen control. […] For comparison, a part of the plants was sprayed with metrafenone alone (used as the commercial product VIVANDO®, BASF; 0.2 L/ha). […] UNCINE infection occurred naturally. Disease incidences were evaluated 6 days after 5th application (6 DAT(5)) and 15 days after 6th application (15 DAT(6)). Disease levels observed were rated in percent infected clusters in the respective plot given as % attack.
A further assay deals with Monilinia laxa. The experiment in a line: Example 7: inoculated stonefruit, spray treatments, visual % infection of plant.
The test system of another assay is Botrytis cinerea. The experiment in a line: Example 1: inoculated vine grapes cv. Riesling, spray treatments, visual % infection of racemes.
The next assay deals with Bremia lactucae. The experiment in a line: Example 23: inoculated lettuce, spray treatments, visual % infection of plant. As to conditions: Boscalid (CANTUS 1 kg/ha) applications AB.
Another assay concerns Sclerotinia sclerotiorum. The experiment in a line: Example 11: inoculated beans, spray treatments, visual % infection of plants. As to conditions: Boscalid (CANTUS 1.0 kg/ha) application A.
A further assay relates to Plasmopara viticola. The experiment in a line: Example 3: inoculated vine grapes, spray treatments, visual % infection of racemes and leaves, severity and frequency. As to conditions: Dithianon (DELAN WG 525 g/ha) applications ABCDEFGHI
Assay [8] relates to Plasmopara viticola (PLASVI). The experiment in a line: Example 17: field trial grapevine cv. Müller-Thurgau, natural infection, percent infected leaf area and clusters. As to conditions: for Attacked Leaf Area/Clusters 10 DAA(7): percent infected clusters; for Attacked Leaf Area/Clusters 4 DAA(9): percent infected leaf area.
Method: The trial was conducted under field conditions. Established grapevine plants (cv. Müller-Thurgau) were grown under standard conditions with adequate supply of water and nutrients.
The application was repeated 4 to 9 times (see below) with 7-14 days intervals applying single products. No other products or compounds were applied for pathogen control. […] For comparison, a part of the plants was sprayed with dithianon alone (used as the commercial product DELAN®, Bayer CropScience; 0.75 kg/ha). […] Another part was sprayed both with dithianon and B. subtilis strain QST713. PLASVI infection occurred naturally. Disease incidences were evaluated 10 days after 7th application (10 DAA(7)) and 4 days after 9th application (4 DAA(9)). Disease levels observed were rated in percent infected leaf area (4 DAA(9)) and in percent infected clusters (10 DAA(7)) in the respective plot given as % attack.
Assay [9] concerns Botrytis cinirea (BOTRCI). The experiment in a line: Example 16: field trial grapevine cv. Müller-Thurgau, natural infection, percent infected clusters.
Method: The trial was conducted under field conditions. Established grapevine plants (cv. Müller-Thurgau) were grown under standard conditions with adequate supply of water and nutrients. The application was repeated 4 to 9 times (see below) with 7-14 days intervals applying single products. No other products or compounds were applied for pathogen control. […] For comparison, a part of the plants was sprayed with dithianon alone (used as the commercial product DELAN®, Bayer CropScience; 0.75 kg/ha). […] BOTRCI infection occurred naturally. Disease incidences were evaluated 21 days after 9th application (21 DAT(9)). Disease levels observed were rated in percent infected clusters in the respective plot given as % attack.
Assay [10] relates to Venturia inequalis (VENTIN). The experiment in a line: Example 18: field trial apple cv. Rubinette, natural infection, percent infected leaf area.
Method: The trial was conducted under field conditions. Established apple plants (cv. Rubinette) were grown under standard conditions with adequate supply of water and nutrients. The application was repeated 6 to 10 times (see below) with 7-14 days intervals applying single products or product mixtures. No other products or compounds were applied for pathogen control. […] VENTIN infection occurred naturally. Disease incidences were evaluated 6 days after 10th application (6 DAT(10)). Disease levels observed were rated in percent infected leaf area in the respective plot given as % attack.
Setting [11] is: Pyraclostrobin (HEADLINE 0.6 L/ha) application A.
Where [12] appears, read: Pyraclostrobin (HEADLINE 0.6 L/ha) applications AB.
The mark [13] stands for this setting: Pyraclostrobin (HEADLINE 0.6 L/ha) applications ABC.
Where [14] appears, read: Metrafenone (VIVANDO 0.2 L/ha) applications ABCDE.
Where [15] appears, read: Metrafenone (VIVANDO 0.2 L/ha) applications ABCDEFG.
Setting [16] is: Metrafenone (VIVANDO 0.2 L/ha) application A.
Where [17] appears, read: Metrafenone (VIVANDO 0.2 L/ha) applications AB.
The mark [18] stands for this setting: Metrafenone (VIVANDO 0.02 Vol.-%) applications ABC.
[19] abbreviates: Metrafenone (VIVANDO 0.02 Vol.-%) applications ABCD.
The mark [20] stands for this setting: Metrafenone (VIVANDO 0.2 L/ha) applications ABC.
The mark [21] stands for this setting: Metrafenone (VIVANDO 0.2 L/ha) applications ABCDEF.
Setting [22] is: Boscalid application A (pyraclostrobin/boscalid mixture PRISTINE 0.66 g/ha).
The mark [23] stands for this setting: Boscalid applications AB (pyraclostrobin/boscalid mixture PRISTINE 0.66 g/ha).
Setting [24] is: Boscalid (CANTUS 1.2 kg/ha) applications AB.
Setting [25] is: Boscalid (CANTUS 1.2 kg/ha) applications ABC.
Where [26] appears, read: Dithianon (DELAN 0.75 kg/ha) applications ABCD.
Setting [27] is: Dithianon (DELAN 0.75 kg/ha) applications ABCDEFGHI

Method for Botrytis cinerea: as §1
Vine grapes of the cultivar “Riesling” were grown under standard conditions with adequate supply of water and nutrients. The test plants were inoculated with an aqueous spore suspension of Botrytis cinerea. […] For comparison, a part of the plants was sprayed with boscalid alone (used as the commercial product CANTUS®, BASF; dose rate per treatment: 1.2 kg/ha; diluted with water to 800 L/ha). […] 95 and 100 days after the first treatment (25 or 30 days after last treatment), the extent of the development of the disease was determined visually in % infection of the racemes.
Method for Bremia lactucae: as §1
The test plants were inoculated with an aqueous spore suspension of Bremia lactucae. […] For comparison, a part of the plants was sprayed with boscalid alone (used as the commercial product CANTUS®, BASF; dose rate per treatment: 1 kg/ha; diluted with water to 500 L/ha). […] 7 days after the last treatment, the extent of the development of the disease was determined visually in % infection of the plant.
Method for Cercospora beticola: as §1
Sugar beets were cultivated and grown under standard conditions with adequate supply of water and nutrients. The test plants were inoculated with an aqueous spore suspension of Cercospora beticola. […] For comparison, a part of the plants was sprayed with pyraclostrobin alone (used as the commercial product HEADLINE®, BASF; dose rate per treatment: 0.6 L/ha; diluted with water to 400 L/ha). […] 46 and 53 days after the first treatment (7 or 14 days after last treatment), the extent of the development of the disease was determined visually in % infection of the plant.
Method for Leveillula taurica: as §1
The test plants were inoculated with an aqueous spore suspension of Leveillula taurica. […] For comparison, a part of the plants was sprayed with metrafenone alone (used as the commercial product VIVANDO®, BASF; dose rate per treatment: 0.2 L/ha; diluted with water to 800 L/ha). […] 35 and 42 days after the first treatment (7 or 14 days after last treatment), the extent of the development of the disease was determined visually in % infection of the leaves.
Method for Monilinia laxa: as §1
Stonefruit was grown under standard conditions with adequate supply of water and nutrients. The test plants were inoculated with an aqueous spore suspension of Monilinia laxa. […] Another part was sprayed both with boscalid and B. subtilis strain QST713. 5 and 11 days after the first treatment (0 or 6 days after last treatment), the extent of the development of the disease was determined visually in % infection of the plant.
Method for Sclerotinia sclerotiorum: as §1
Beans were cultivated and grown under standard conditions with adequate supply of water and nutrients. The test plants were inoculated with an aqueous spore suspension of Sclerotinia sclerotiorum. […] For comparison, a part of the plants was sprayed with boscalid alone (used as the commercial product CANTUS®, BASF; dose rate per treatment: 1.0 kg/ha; diluted with water to 500 L/ha). […] 28 and 35 days after the first treatment (0 or 7 days after last treatment), the extent of the development of the disease was determined visually in % infection of the plants.

In the case of `COC(=O)N(OC)c1ccccc1COc1ccn(-c2ccc(Cl)cc2)n1` [Pyraclostrobin, pyraclostrobin], the “Attack on Plant 46 DAT” value with Cercospora beticola (setting [11]) was determined as 11%; with Cercospora beticola (setting [12]) it was 4.7%; in the assay with Cercospora beticola (setting [13]), 2.7%. In addition, the figures for the “Attack on Plant 53 DAT” value in the assay on Cercospora beticola (setting [11]), in the assay on Cercospora beticola (setting [12]) and in the assay with Cercospora beticola (setting [13]) were 17%, 5.7% and 3.7%, respectively.
On to `CCCCCCCCc1c(CC)nc2ncnn2c1N` [BAS 650, 5-ethyl-6-octyl-[1,2,4]triazolo[1,5-a]pyrimidine-7-ylamine], for which the “Attack on Leaves” value is 7% in assay [1] (BAS 650 (BAS 650 00F 1.2 L/ha) applications AB) and 6.2% in assay [1] (BAS 650 (BAS 650 00F 1.2 L/ha) applications ABC).
For `COc1cc(C)c(C(=O)c2c(OC)ccc(Br)c2C)c(OC)c1OC` [Metrafenone, metrafenone], in the assay on Uncinula necator [2] (setting [14]), the “Attack on Leaves 76 DAT” value is 4.3%, the “Attack on Leaves 90 DAT” value was 35%, the “Attack on Raceme 76 DAT” value came out at 8.3% and the “Attack on Raceme 90 DAT” value is given as 43%. Also, in the assay with Uncinula necator [2] (setting [15]), the “Attack on Leaves 76 DAT” value turned out to be 3.0%, the “Attack on Leaves 90 DAT” value stood at 13%, the “Attack on Raceme 76 DAT” value stood at 6.0% and the “Attack on Raceme 90 DAT” value amounted to 22%. For the same compound, in the assay with Erysiphe necator, the “Attack on clusters 11 DAA (6)” value is listed as 25%. Moreover, in the assay with Sphaerotheca fuliginea [3] (setting [16]), the “Attack on Plant 27 DAT” value is reported as 24% and the “Attack on Plant 34 DAT” value stood at 32%. In the assay on Sphaerotheca fuliginea [3] (setting [17]), the “Attack on Plant 27 DAT” value is 9.2% and the “Attack on Plant 34 DAT” value was determined as 14%. For the same compound, the “Attack on Leaves” value in the assay with Sphaerotheca fuliginea [4] amounted to 50%. Further, in the assay with Leveillula taurica, the “Attack on Plant 35 DAT” value is reported as 22% and the “Attack on Plant 42 DAT” value came to 43%. For the same compound, in the assay with Uncinula necator [5] (setting [18]), the “Attack on Raceme 85 DAT” value was 26% and the “Attack on Raceme 91 DAT” value is reported as 32%. In addition, in the assay with Uncinula necator [5] (setting [19]), the “Attack on Raceme 85 DAT” value was 11% and the “Attack on Raceme 91 DAT” value is reported as 14%. Besides, the “Attack on Leaves” value in the assay on Sphaerotheca fuliginea [6] turned out to be 15%. In assay [7] (setting [20]), the “Attacked Clusters 6 DAT(5)” value was found to be 7.9% and the “Attacked Clusters 15 DAT(6)” value was 26%. For the same compound, in [7] (setting [21]), the “Attacked Clusters 6 DAT(5)” value worked out at 2.2% and the “Attacked Clusters 15 DAT(6)” value is given as 4.2%.
Take `O=C(Nc1ccccc1-c1ccc(Cl)cc1)c1cccnc1Cl` [Boscalid, boscalid]: in the assay on Monilinia laxa (setting [22]), the “Attack on Plant 5 DAT” value was found to be 1.8% and the “Attack on Plant 11 DAT” value was 36%. Besides, in the assay on Monilinia laxa (setting [23]), the “Attack on Plant 5 DAT” value was determined as 1.8% and the “Attack on Plant 11 DAT” value is listed as 29%. Further, in the assay with Botrytis cinerea (setting [24]), the “Attack on Raceme 95 DAT” value was 35% and the “Attack on Raceme 100 DAT” value is given as 44%. In addition, in the assay with Botrytis cinerea (setting [25]), the “Attack on Raceme 95 DAT” value worked out at 28% and the “Attack on Raceme 100 DAT” value is given as 36%. The “Attack on Plant 7 DALT” value in the assay with Bremia lactucae came out at 14%. Also, in the assay with Sclerotinia sclerotiorum, the “Attack on Plant 28 DAT” value is 30% and the “Attack on Plant 35 DAT” value was 53%.
On to `N#Cc1sc2c(=O)c3ccccc3c(=O)c=2sc1C#N` [Dithianon, dithianon], for which, in the assay with Plasmopara viticola, the “Attack on Leaves 87 DAT” value is 25%, the “Attack on Raceme 67 DAT” value is on record as 34% and the “Attack on Raceme 73 DAT” value is on record as 48%. Besides, in the assay with Plasmopara viticola (infection on racemes), the “Frequency 73 DAT” value is recorded as 37% and the “Severity 73 DAT” value stood at 7.5%. In assay [8] (setting [26]), the “Attacked Leaf Area/Clusters 10 DAA(7)” value was 30% and the “Attacked Leaf Area/Clusters 4 DAA(9)” value worked out at 11%. Further, in [8] (setting [27]), the “Attacked Leaf Area/Clusters 10 DAA(7)” value is on record as 25% and the “Attacked Leaf Area/Clusters 4 DAA(9)” value was determined as 7.5%. Further, the “Attacked Clusters 21 DAT(9)” value in [9] (setting [26]) stood at 12%. Further, the “Attacked Clusters 21 DAT(9)” value in assay [9] (setting [27]) is 15%. Besides, the “Attacked Leaf Area 6 DAT10” value in assay [10] (Dithianon (DELAN 0.75 kg/ha) applications ABCDEF) is given as 12%. In addition, in assay [10] (Dithianon (DELAN 0.75 kg/ha) applications ABCDEFGHIJ), the “Attacked Leaf Area 6 DAT10” value is reported as 7.3%.
